From the supplement of paper PMC10307832

Legend:
Assay in all cases: relative viability (nuclei count vs DMSO), 5 days (fraction); higher = more cells survive
[1] = compound: C1CC(C1)(C(=O)O)C(=O)O.[NH2-].[NH2-].[Pt+2] [Carboplatin] + CC(=O)Nc1cccc(-n2c(=O)n(C3CC3)c(=O)c3c(Nc4ccc(I)cc4F)n(C)c(=O)c(C)c32)c1 [Trametinib] (partner 0.02 µM)
Procedure, shortened: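 Nuclei were stained with Hoechst during a one-step fixation (final 0.05% Triton X-100, 1% formaldehyde, 1 ug/ml Hoechst) carried out 5 days after dosing, then counted on 4× images. The cells, lung cancer lines in 1536-well plates, had been dosed by pin tool the day after seeding with one drug alone or a fixed anchor-drug dose plus five library-drug doses (not always all listed) in √10 steps. Relative viability is the nuclei count in treated wells divided by that in vehicle wells, and each value is the median of duplicate plates.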

[2] = compound: C1CC(C1)(C(=O)O)C(=O)O.[NH2-].[NH2-].[Pt+2] [Carboplatin]
Procedure, shortened: (§1)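 For viability, nuclei in each treated well were divided by nuclei in vehicle wells and the median across plates was taken. Lung cancer cell lines in 1536-well plates were pinned with five library-drug doses (not always all listed) spaced by √10, cultured 5 days without medium change, and imaged at 4× after Hoechst staining, with plates passing only at control CV below 25% and at least one doubling.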

[3] = compound: NS(=O)(=O)OC[C@@H]1C[C@@H](n2ccc3c(N[C@H]4CCc5ccccc54)ncnc32)C[C@@H]1O [MLN4924]
Procedure, shortened: as §1

[4] = compound: CC[C@H](C)N1C=C(C2=C(C=C(C=C21)C3=CN=C(C=C3)N4CCNCC4)C(=O)NCC5=C(C=C(NC5=O)C)C)C [GSK126]
Procedure, shortened: as §1

Row | Cell Line | relative viability ([1]; first compound 0.08 µM) | relative viability ([1]; first compound 0.253 µM) | relative viability ([1]; first compound 0.8 µM) | relative viability ([1]; first compound 2.53 µM) | relative viability ([1]; first compound 8 µM) | relative viability ([2]; 0.08 µM) | relative viability ([2]; 0.253 µM) | relative viability ([2]; 0.8 µM) | relative viability ([2]; 2.53 µM) | relative viability ([2]; 8 µM) | relative viability ([3]; 0.04 µM) | relative viability ([3]; 0.1265 µM) | relative viability ([3]; 0.4 µM) | relative viability ([3]; 1.265 µM) | relative viability ([3]; 4 µM) | relative viability ([4]; 0.08 µM) | relative viability ([4]; 0.253 µM) | relative viability ([4]; 0.8 µM) | relative viability ([4]; 2.53 µM) | relative viability ([4]; 8 µM)
1 | NCI-H3122 | 0.227 | 0.259 | 0.251 | 0.251 | 0.226 | 1.01 | 1.01 | 1.02 | 1.01 | 0.968 | 0.92 | 0.585 | 0.325 | 0.139 | 0.135 | 1.03 | 1 | 0.966 | 1.02 | 1
2 | NCI-H1650 | 0.623 | 0.585 | 0.573 | 0.522 | 0.389 | 0.995 | 0.888 | 0.933 | 0.812 | 0.638 | 0.708 | 0.578 | 0.286 | 0.171 | 0.201 | 1.05 | 0.948 | 0.954 | 1.02 | 1.03
3 | SW 900 | 0.794 | 0.904 | 1.07 | 0.7 | 0.759 | 0.808 | 0.774 | 0.822 | 0.837 | 0.68 | 0.68 | 0.825 | 0.384 | 0.21 | 0.184 | 0.844 | 0.853 | 0.788 | 0.896 | 0.892
4 | NCI-H1355 | 0.45 | 0.438 | 0.474 | 0.403 | 0.367 | 1.09 | 1.05 | 0.989 | 1 | 0.876 | 0.976 | 1.01 | 0.783 | 0.369 | 0.34 | 1.08 | 0.982 | 0.975 | 1.06 | 1.01
5 | NCI-H2342 | 0.825 | 0.891 | 0.903 | 0.924 | 0.81 | 1.06 | 0.987 | 1.07 | 1.02 | 0.873 | 1.18 | 0.931 | 0.97 | 0.788 | 0.57 | 1.12 | 1.04 | 1.07 | 1.05 | 1.17
6 | NCI-H1734 | 0.69 | 0.718 | 0.659 | 0.637 | 0.501 | 1.07 | 1.04 | 0.991 | 1.03 | 0.875 | 1.02 | 0.963 | 0.306 | 0.145 | 0.155 | 1.13 | 0.981 | 0.986 | 1.03 | 1.01
7 | LXF-289 | 0.671 | 0.717 | 0.674 | 0.712 | 0.656 | 1.03 | 1.05 | 0.967 | 0.987 | 0.973 | 0.887 | 0.822 | 0.556 | 0.208 | 0.146 | 1.03 | 1.05 | 1.02 | 1.01 | 1.01
8 | RERF-LC-KJ | 0.863 | 0.876 | 0.785 | 0.696 | 0.53 | 0.978 | 1.02 | 0.939 | 0.88 | 0.702 | 0.879 | 0.738 | 0.233 | 0.211 | 0.228 | 1.12 | 1.1 | 1.02 | 1.01 | 1.05
9 | NCI-H2087 | 0.242 | 0.257 | 0.171 | 0.198 | 0.175 | 1.14 | 1.21 | 0.997 | 0.999 | 0.711 | 1.02 | 0.969 | 0.491 | 0.16 | 0.0937 | 1.18 | 0.945 | 1 | 1.15 | 1.17
10 | NCI-H1793 | 0.39 | 0.455 | 0.48 | 0.386 | 0.431 | 0.968 | 0.98 | 0.908 | 0.906 | 1.1 | 0.91 | 0.982 | 1.01 | 0.473 | 0.361 | 1.07 | 0.948 | 0.826 | 1.11 | 0.855
11 | HCC-827 | 0.579 | 0.517 | 0.557 | 0.497 | 0.57 | 1.09 | 1.01 | 1.01 | 1.01 | 0.983 | 0.972 | 0.852 | 0.704 | 0.253 | 0.183 | 1.05 | 1.06 | 1.01 | 1.01 | 0.993
12 | NCI-H1395 | 1.05 | 1.03 | 1.01 | 0.742 | 0.618 | 1.16 | 0.885 | 0.833 | 0.749 | 0.766 | 0.868 | 0.951 | 0.618 | 0.354 | 0.381 | 1.03 | 0.926 | 0.893 | 1 | 0.957
13 | NCI-H23 | 0.414 | 0.425 | 0.364 | 0.366 | 0.389 | 1.13 | 1.01 | 0.991 | 1.02 | 0.792 | 0.815 | 0.721 | 0.462 | 0.204 | 0.206 | 1.03 | 0.949 | 1.02 | 1.18 | 1.21
14 | HARA | 0.68 | 0.865 | 0.917 | 0.412 | 0.607 | 1.02 | 0.937 | 0.932 | 0.921 | 0.944 | 0.855 | 0.834 | 0.412 | 0.103 | 0.127 | 1.07 | 0.936 | 0.931 | 0.855 | 0.756
15 | HCC-366 | 0.406 | 0.43 | 0.372 | 0.269 | 0.179 | 1.04 | 0.974 | 1.03 | 1.02 | 0.95 | 1.05 | 1.02 | 0.674 | 0.228 | 0.0735 | 1.12 | 1.03 | 1.02 | 1.01 | 1
16 | NCI-H838 | 0.558 | 0.519 | 0.536 | 0.515 | 0.541 | 1.03 | 1.03 | 0.949 | 0.921 | 0.951 | 0.93 | 0.488 | 0.325 | 0.158 | 0.219 | 1.01 | 0.919 | 0.913 | 0.971 | 0.926
